Where two headings read alike, the source gives them in different places.
Columns and labels:
[1] = tested on: normal dogs and dogs with advanced dilated cardiomyopathy; assay: Acute graded infusion, hemodynamic effects in conscious chronically instrumented dogs; format: in vivo, dog; details: for effects on left ventricular pressure, left ventricular dP/dt, cardiac output, heart rate: graded infusions for ten minutes, six normal dogs and six dogs with advanced DCM
From the text: FIGS. 2a–2d show the dose response to rGLP-1 in normal conscious dogs and conscious dogs with advanced DCM compared to the response to the sympathomimetic, dobutamine.
FIG. 1 illustrates characteristic instrumentation of conscious, chronically instrumented dogs studied in the laboratory. Under sterile surgical technique, the animals are instrumented as indicated and allowed to recover fully from their surgery. At the time, they are taught to lie quietly on the experimental table before study. To determine if acute GLP-1 (7–36 amide) infusion is associated with hemodynamic effects in conscious chronically instrumented dogs, graded infusions for ten minutes at doses of 1.25, 2.5, 5, 10 and 20 pmol/kg/min in six normal dogs and in six dogs with advanced dilated cardiomyopathy were studied. The response of the graded infusion to the classic iontopic agent, Dobutamine, (2.5, 5, 7.5, 10 and 15 μ/kg/min.) was compared. […] Nikolaidis, L A, Hentosz, T, Doverspike, A, et al., “Catecholamine stimulation is associated with impaired myocardial O2 utilization in heart failure,” Cardiovas. Res., 2002;53:392–404, incorporated by reference herein.

plasma insulin = details: cited from earlier work; for plasma insulin levels: GIP 2.0, GLP-1 1.5 pmol·kg−1·min−1
normal dogs = assay: 48 hour continuous intravenous infusion, hemodynamic effect in normal dogs; format: in vivo, dog; details: 1.5 pmol/kg/min i.v. 48 hours; five normal dogs
Experimental: (§1) A 48 hour continuous intravenous infusion of GLP-1 (7–36 amide), (1.5 pmol/kg/min) in five normal dogs to determine the hemodynamic effect of chronic infusion in the absence of dilated cardiomyopathy was conducted. […] FIGS. 3–5 illustrates the effects of GLP-1 (7–36 amide) infusion (1.5 pmol/kg/min) intravenously for 48 hours in 20 conscious, chronically instrumented animals with advanced heart failure. These effects have been compared to similarly instrumented animals with advanced heart failure that received a control saline infusion of equal volume ([…]) illustrate the hemodynamic effects of chronic GLP-1 infusion in advanced DCM. GLP-1 (7–36 amide) infusion was associated with a restoration of left ventricular pressure, improvement in contractility, improvement in cardiac output, and reduction in heart rate and LVEDP. […] GLP-1 was associated with restoration of endothelial dependent vaso dilatation response to acetylcholine (FIG. 7). […] GLP-1 had little effect on increased plasma insulin levels in the setting of euglycemia.

[2] = tested on: endothelial dependent coronary vasodilation; assay: Coronary flow responses to acetylcholine and nitroglycerin in conscious dogs with advanced DCM after 48-hour infusion; format: in vivo, dog
Experimental: FIGS. 7a and 7b show the effects of rGLP-1 on endothelial dependent coronary vasodilation in conscious dogs. Advanced DCM was associated with impaired coronary flow responses to acetylcholine. These responses were restored following 48-hour infusion of rGLP-1. The response to the non-endothelial dependent vasodilator, nitroglycerin was unaffected.
as §1

[3] = tested on: conscious dogs with advanced DCM; assay: 48 hour intravenous infusion, hemodynamics and myocardial sympathetic activity in conscious dogs with advanced heart failure (DCM); format: in vivo, dog
From the text: FIGS. 3a–3d show the effects of r GLP-1 on LV systolic pressure, LV end diastolic pressure, LV dP/dt, and heart rate in conscious dogs with advanced DCM compared to saline control.
FIGS. 4a–4d show the effects of rGLP-1 on cardiac output, stroke volume, LV ejection fraction, systemic vascular resistance in conscious dogs with advanced DCM compared to saline control.
FIGS. 5a and 5b show the effects of rGLP-1 on stroke work and LV external efficiency in conscious dogs with advanced DCM compared to saline control.
FIGS. 6a and 6b show the effects of rGLP-1 on transmyocardial norepinephrine uptake as a reflection of sympathetic drive to the myocardium in conscious dogs with advanced DCM compared to saline controls.
as §1

[4] = tested on: patients with large myocardial infarction (LVEF<35%); assay: 72 hour continuous intravenous infusion in adults with severe acute myocardial infarction, LV function; format: in vivo, human; details: 1.5 pmol/kg/min i.v. 72 hours after percutaneous coronary intervention; ten adults vs eleven on standard care
Experimental: The effects of continuous intravenous infusion of GLP-1 (1.5 pmol/kg/min) intravenously for 72 hours was studied in ten adults presenting with severe acute myocardial infarction. These were compared to eleven adults with similar large myocardial infarction (LVEF<35%) all of whom underwent percutaneous coronary intervention and subsequently were treated for 72 hours thereafter.

[5] = tested on: myocardial substrate uptake; assay: Myocardial substrate uptake and metabolic parameters in dogs with advanced DCM, 48 h infusion (Table 1); format: in vivo, dog; details: for Glucose myocardial uptake / Lactate myocardial uptake / NE (transmyocardial norepinephrine uptake) / NEFA myocardial uptake: GLP-1 group (n = 9); for Insulin/Glucagon: ratio insulin (pmol/L) to glucagon (pg/ml), GLP-1 group
Experimental: as §1

restrained rats = details: rat, in vivo, sc; cited from earlier work
[6] = hyperglycemia 10.4 mmol/l, hyperglycemia alone ~280 pmol/l
[7] = hyperglycemia 187 mg/dl, hyperglycemia alone 47 μU/ml
[8] = 1.5 pmol/kg/min i.v. 48 hours, vs saline
[9] = Baseline (before CHF and infusion)
[10] = advanced DCM, vs saline controls

## CC(CCc1ccc(O)cc1)NCCc1ccc(O)c(O)c1 (centres unmarked) [Dobutamine]
[1]; dogs with heart failure (advanced DCM), graded infusion
  hemodynamic effects of graded infusion, heart failure: de-sensitized effects
[1]; normal dogs, graded infusion
  hemodynamic effects of graded infusion, normal dogs: predictable effects

## glucose-dependent insulinotropic polypeptide [GIP]
Plasma insulin; [6]
  plasma insulin levels: ~900 pmol/L
Plasma insulin; [7]
  plasma insulin levels: 150 μU/ml
Plasma insulin; normal subjects, euglycemia
  insulinotropic action during euglycemia: not

## GLP-1 (7–36 amide)
Normal dogs
  hemodynamic effects of chronic infusion: no significant hemodynamic effects
[2]
  endothelial dependent vasodilatation (coronary flow) response to acetylcholine: restoration
  response to the non-endothelial dependent vasodilator nitroglycerin: unaffected
[2]; listed as rGLP-1
  endothelial dependent vasodilatation (coronary flow) response to acetylcholine: restored
[3]; [8]
  LVEDP: reduction
  cardiac output: improvement
  contractility: improvement
  heart rate: reduction
  left ventricular pressure: restoration
[3]; infusion compared to saline
  myocardial sympathetic activity: suppression
[4]
  left ventricular function: improvement
[1]
  effects on left ventricular pressure, left ventricular dP/dt, cardiac output, heart rate: no significant, dose related effects
[1]; listed as rGLP-1
  effects on left ventricular pressure, left ventricular dP/dt, cardiac output, heart rate: no acute hemodynamic effects
[5]; 24 hrs of infusion
  Glucose myocardial uptake: 8.72 ± 1.05 µmol/min
  Lactate myocardial uptake: 3.61 ± 0.62 µmol/min
  NE (transmyocardial norepinephrine uptake): 26.3 ± 3.1 pmol/min
  NEFA myocardial uptake: 4.53 ± 0.58 µmol/min
[5]; 48 hrs of infusion
  Glucose myocardial uptake: 7.00 ± 0.94 µmol/min
  Lactate myocardial uptake: 4.04 ± 0.74 µmol/min
  NE (transmyocardial norepinephrine uptake): 30.5 ± 4.9 pmol/min
  NEFA myocardial uptake: 5.16 ± 0.73 µmol/min
  Insulin/Glucagon: 3.12 ± 0.24
[5]; [9]
  Glucose myocardial uptake: 6.67 ± 1.22 µmol/min
  Lactate myocardial uptake: 4.78 ± 1.04 µmol/min
  NE (transmyocardial norepinephrine uptake): 30.9 ± 4.8 pmol/min
  NEFA myocardial uptake: 5.23 ± 0.83 µmol/min
  Insulin/Glucagon: 1.36 ± 0.21
[5]; CHF (before infusion)
  Glucose myocardial uptake: 3.44 ± 0.81 µmol/min
  Lactate myocardial uptake: 2.64 ± 0.91 µmol/min
  NE (transmyocardial norepinephrine uptake): 18.7 ± 3.6 pmol/min
  NEFA myocardial uptake: 3.17 ± 0.61 µmol/min
  Insulin/Glucagon: 1.79 ± 0.29
[5]; [10]
  myocardial glucose uptake: enhanced
  ratio of insulin (pmol/L) to glucagon (pg/ml): significant increase
[5]; setting of euglycemia, advanced DCM
  plasma insulin levels: little effect
Plasma insulin; [6]
  plasma insulin levels: ~2000 pmol/L
Plasma insulin; [7]
  plasma insulin levels: 333 μU/ml
Plasma insulin; hyperglycemia, infusion
  relative potency as incretin: more potent than GIP

## exendin-4 [excendin 4]
Restrained rats
  blood pressure and heart rate: hypertension and tachycardia

From US7192922B2, “Method of treating left ventricular dysfunction” (Allegheny-Singer Research Institute, priority 2002, dated 2007)
